What was measured:
polarized T84 cells [1] = assay: Ng-induced exfoliation of polarized T84 monolayers (3D-CFM); format: cell-based, human; settings: MS11ΔOpa, 6 h; inhibitor 1 h before and during; ML-7 10 μM, PIK 100 μM, Y27632 10 μM, 2APB 10 μM
Text: To quantify epithelial exfoliation, the number of Ng associated cells localized on the top of the epithelial monolayer (exfoliated) and the total number of Ng associated epithelial cells was counted by visual inspection in each randomly acquired image, to determine the percentage of exfoliated cells. To estimate the level of Ng penetration into the subepithelium, the number of non-exfoliated epithelial cells (in clearly visible epithelial monolayers) with basal Ng staining and the total number of Ng associated epithelial cells were visually counted to calculate the percentage of infected epithelial cells with Ng penetration into the basolateral side. To evaluate the disruption of the apical junction, the number of Ng associated epithelial cells that lost continuously apical staining of the junctional protein ZO1 and the total number of Ng associated epithelial cells were visually counted to calculate the percentage of Ng associated epithelial cells with apical junction disassembly. To quantify the redistribution of pMLC, the fluorescence intensity ratios (FIR) of pMLC staining at the apical to lateral in individual epithelial cells were determined using average FI as previously described.
(§1) Immunofluorescence analysis of polarized epithelial cells. Cells were pretreated with or without NMII kinase inhibitors, Y27632 (10 μM, EMD Millipore), ML-7 (10 μM, EMD Millipore) and PIK (100 μM) or Ca2+ inhibitors, 2APB (10 μM, EMD Millipore) and BAPTA (50 μM, EMD Millipore) for 1 h, and incubated with Ng in the presence or absence of the inhibitors for 6 h. Cell were washed and fixed with 4% paraformaldehyde, permeabilized with 1% Triton X100, and stained with anti-E-cadherin (BD Bioscience), anti-pMLC (Cell Signaling Technology, Carlsbad, Calif.), anti-Ng antibodies, and DAPI for nuclei. Cells were analyzed by CFM. Images were acquired as Z-series of 0.37 μm slices, and 3D composites obtained. Epithelial exfoliation will be quantified using xz images as described for the tissue explants. The distribution of E-cadherin and pMLC was quantitatively analyzed by measuring the FIR at the apical junctional to the cytoplasmic area (from xy images) or at the apical to lateral surface area (from xz images) in individual cells.

polarized T84 cells [2] = assay: Exfoliation of polarized T84 cells treated with inhibitors alone, without Ng; format: cell-based, human; settings: no Ng inoculation, 6 h
Method: Polarized T84 cells were treated with inhibitors for 6 h, fixed, stained to visualize the cell nuclei, and imaged by 3D-CFM. The percentage of cell moving above the epithelial monolayer (dash lines) was determined from three independent experiments. Scale bar, 5 μm. *p≤0.05.
as §1

[3] = tested on: Neisseria gonorrhoeae MS11; assay: Ng adherence, invasion, and transmigration assays on polarized epithelial cells; format: cell-based; settings: for transmigration of MS11ΔOpa across the polarized T84 monolayer / Ng invasion into polarized T84 cells (gentamicin resistance): 6 h; for transmigration of MS11ΔOpa across the polarized T84 monolayer: ML-7 10 μM, PIK 100 μM, 2APB 10 μM, Y27632 10 μM; for Ng adherence to polarized T84 cells / Ng invasion into polarized T84 cells (gentamicin resistance): MS11ΔOpa, with inhibitors; for Ng adherence to polarized T84 cells: 3 h
Method: Ng adherence, invasion, and transmigration assays. The assays were performed as previously described. Briefly, polarized epithelial cells that were pretreated with or without the inhibitors for 1 h were incubated apically with Ng at 37° C. for 3 h for adherence and 6 h for invasion and transmigration assays with or without the inhibitors. Ng in the basolateral media were cultured and counted as transmigrated bacteria. Cells were washed and lysed to count adherent Ng. Cells were treated with gentamicin, washed, and lysed to count bacteria that were resistant to gentamicin treatment as invaded Ng.

E-cadherin = E-cadherin distribution at the apical junction of Ng-inoculated polarized T84 cells; format: cell-based, human; settings: polarized T84, Ng 6 h; ML-7 10 μM, 2APB 10 μM, Y27632 10 μM
Text: Ng-induced junction disassembly requires NMII activation and Ca^2+ flux but is suppressed by Opa. The linkage between the efficiency of Ng penetration into the epithelium with Ng induced epithelial exfoliation and apical junction disruption shown here and previously implicate Ng induced junction disruption as an underlying cause of epithelial exfoliation. To test this hypothesis, we determined whether Opa expression and the MLCK and Ca^2+ inhibitors, which all inhibited Ng induced epithelial exfoliation, also prevent Ng from disrupting the apical junction. The structural integrity of the apical junction was evaluated by analyzing the distribution of E-cadherin using immunofluorescence (IFM) and 3D-CFM and quantifying the fluorescence intensity ratio (FIR) of E-cadherin at the cytoplasm to that at the apical junction. In polarized T84 cells that were not inoculated with Ng, E-cadherin staining was primarily localized at the apical junction (FIG. 4A, top panels). […]
Immunofluorescence analysis of polarized epithelial cells. […] Cells were analyzed by CFM. […] Epithelial exfoliation will be quantified using xz images as described for the tissue explants. The distribution of E-cadherin and pMLC was quantitatively analyzed by measuring the FIR at the apical junctional to the cytoplasmic area (from xy images) or at the apical to lateral surface area (from xz images) in individual cells.

polarized T84 cells [4] = assay: Fence function of the apical junction (CellMask) in polarized T84 cells; format: cell-based, human; settings: polarized T84, Ng-inoculated; ML-7 10 μM, 2APB 10 μM
Method: Ng-induced junctional disassembly leads to a significant increase in the lateral diffusion between the apical and basolateral membrane but not in the permeability of epithelial monolayers. To determine whether Opa, MLCK and Ca^2+ flux are involved in this functional alteration of the apical junction, we stained the basolateral surface of polarized T84 epithelial cells exclusively with CellMask dye for […], after apical incubation with fluorescently labeled Ng for 6 h. The appearance of basolaterally stained CellMask dye in the apical membrane indicates a decrease in the fence function of the apical junction (FIG. 4D). […] The percentage of cells with basolaterally labeled CellMask reaching the apical surface increased to 19.4% when MS11Opa+ was inoculated and to 62.2% when MS11ΔOpa was inoculated (FIGS. 4E and 4F).
Fence functional of the apical junction. Polarized T84 cells were incubated with Ng apically for 6 h. Then the cells were incubated with the CellMask dye (5 μg/ml, Life Technologies) in the basolateral chamber only for 15 min, and xz images were acquired using Leica TCS SP5X confocal microscope (Leica Microsystems, Buffalo Grove, Ill.). The number of epithelial cells displaying CellMask staining at the apical membrane was countered visually as the percentage of the total number of epithelial cells in each randomly acquired image.

Row | SMILES | exfoliation of MS11ΔOpa-infected epithelial cells from T84 monolayers (polarized T84 cells [1]) | epithelial exfoliation with inhibitors alone (polarized T84 cells [2]) | transmigration of MS11ΔOpa across the polarized T84 monolayer [3] | Ng adherence to polarized T84 cells [3] | Ng invasion into polarized T84 cells (gentamicin resistance) [3] | punctuate cytoplasmic staining and cytoplasm:junction FIR of E-cadherin (E-cadherin) | percentage of epithelial cells with CellMask staining leaked to the apical surface (polarized T84 cells [4])
1 | NCCOB(c1ccccc1)c1ccccc1 [2APB] | reduced the exfoliation of polarized T84 cells to the level similar to ML-7 and PIK | did not affect epithelial exfoliation | significantly reduced the transmigration | none of these inhibitors had any significant effect | none of these inhibitors had any significant effect | decreased the punctuate staining of E-cadherin in the cytoplasm and the cytoplasm:junction FIR of E-cadherin to or below the control level | significantly lowered the percentage of epithelial cells with the CellMark staining leaked to the apical surface
2 | O=S(=O)(c1cccc2c(I)cccc12)N1CCCNCC1 [ML-7] | reduced the exfoliation | did not affect epithelial exfoliation | significantly reduced the transmigration | none of these inhibitors had any significant effect | none of these inhibitors had any significant effect | decreased the punctuate staining of E-cadherin in the cytoplasm and the cytoplasm:junction FIR of E-cadherin to or below the control level | significantly lowered the percentage of epithelial cells with the CellMark staining leaked to the apical surface
